# Data taken from patent publication US20170073337A1, “DIHYDROTHIAZINE AND DIHYDROOXAZINE DERIVATIVES HAVING BACE1 INHIBITORY ACTIVITY” (Shionogi & Co., Ltd., priority 2014, published 2017).
# Read-outs that look alike come from different tables or passages of the source.
# Experiments:
# [1] = target: T1, human ether-a-go-go related gene (hERG) channel (Homo sapiens, UniProt Q12809); test: hERG test; format: cell-based; conditions: % inhibition of IKr tail peak current at 3 uM; CHO cells expressing hERG
# T1 construct: expressed in transfected cells; host or cells: CHO cells
# T1 sequence (Q12809 whole entry): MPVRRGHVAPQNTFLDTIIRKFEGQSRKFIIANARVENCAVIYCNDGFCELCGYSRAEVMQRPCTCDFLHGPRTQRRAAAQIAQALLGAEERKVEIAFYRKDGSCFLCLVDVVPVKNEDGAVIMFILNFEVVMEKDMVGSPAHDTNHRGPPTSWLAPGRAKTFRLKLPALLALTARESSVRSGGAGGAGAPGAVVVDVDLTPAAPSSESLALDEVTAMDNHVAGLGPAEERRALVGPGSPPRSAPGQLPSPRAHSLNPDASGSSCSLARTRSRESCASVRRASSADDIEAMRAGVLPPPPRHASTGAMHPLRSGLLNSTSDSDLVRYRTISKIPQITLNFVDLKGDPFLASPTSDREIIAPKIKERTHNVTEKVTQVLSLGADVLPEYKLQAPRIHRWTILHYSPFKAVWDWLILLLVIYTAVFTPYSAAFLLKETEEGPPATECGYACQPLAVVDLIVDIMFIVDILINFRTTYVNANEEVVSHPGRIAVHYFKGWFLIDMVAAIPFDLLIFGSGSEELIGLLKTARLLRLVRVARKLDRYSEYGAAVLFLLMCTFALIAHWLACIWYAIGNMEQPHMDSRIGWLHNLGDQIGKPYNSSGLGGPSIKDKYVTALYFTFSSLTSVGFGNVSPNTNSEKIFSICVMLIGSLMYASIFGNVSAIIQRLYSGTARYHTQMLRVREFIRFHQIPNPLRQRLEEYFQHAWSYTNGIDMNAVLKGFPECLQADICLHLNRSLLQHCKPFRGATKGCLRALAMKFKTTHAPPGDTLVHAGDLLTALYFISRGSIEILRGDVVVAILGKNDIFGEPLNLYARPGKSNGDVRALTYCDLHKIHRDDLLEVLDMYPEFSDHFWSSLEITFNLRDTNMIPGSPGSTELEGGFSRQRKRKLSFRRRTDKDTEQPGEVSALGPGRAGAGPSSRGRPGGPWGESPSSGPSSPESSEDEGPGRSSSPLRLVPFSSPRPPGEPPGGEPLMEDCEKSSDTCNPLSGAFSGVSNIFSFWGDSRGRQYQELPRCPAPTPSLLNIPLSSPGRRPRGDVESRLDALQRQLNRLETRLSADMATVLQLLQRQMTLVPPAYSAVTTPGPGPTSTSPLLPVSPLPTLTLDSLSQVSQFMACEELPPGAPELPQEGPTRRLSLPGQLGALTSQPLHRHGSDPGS
# Procedure, shortened: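 IKr was recorded from hERG-expressing CHO cells by automated whole-cell patch clamp at a holding potential of −80 mV. A −50 mV leak step was followed by a 2 s depolarization to +20 mV and a 2 s repolarization to −50 mV, when current was measured.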
# CYP1A2 = target: T2, CYP1A2 (Homo sapiens, UniProt P05177); test: CYP inhibition test (CYP1A2); format: in vitro ADME; conditions: pooled human liver microsomes; 7-ethoxyresorufin O-deethylation
# T2 construct: The commercially available pooled human liver microsomes are used as an enzyme resource; from tissue; host or cells: pooled human liver microsomes
# T2 sequence (P05177 1-516): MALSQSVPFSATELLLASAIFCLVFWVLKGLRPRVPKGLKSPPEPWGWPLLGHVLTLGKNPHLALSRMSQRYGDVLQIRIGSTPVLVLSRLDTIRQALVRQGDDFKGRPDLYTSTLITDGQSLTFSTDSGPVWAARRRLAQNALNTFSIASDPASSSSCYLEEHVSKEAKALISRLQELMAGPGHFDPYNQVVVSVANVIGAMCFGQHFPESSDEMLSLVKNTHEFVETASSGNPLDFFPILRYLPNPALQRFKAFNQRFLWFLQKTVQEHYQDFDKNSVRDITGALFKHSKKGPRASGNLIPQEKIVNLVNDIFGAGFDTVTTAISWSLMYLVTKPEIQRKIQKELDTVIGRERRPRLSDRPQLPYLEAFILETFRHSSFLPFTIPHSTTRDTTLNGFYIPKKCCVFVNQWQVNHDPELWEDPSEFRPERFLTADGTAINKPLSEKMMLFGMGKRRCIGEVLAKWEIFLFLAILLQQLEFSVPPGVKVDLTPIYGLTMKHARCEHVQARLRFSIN
# Procedure, shortened: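 Inhibition of CYP1A2 was measured in commercially available pooled human liver microsomes (0.2 mg protein/mL) using 7-ethoxyresorufin O-deethylation with 0.5 μmol/L ethoxyresorufin. Test compound at 1, 5, 10, 20 μmol/L in […] Hepes buffer was incubated at 37° C. after NADPH addition; methanol/acetonitrile=1/1 (v/v) stopped the reaction, and resorufin was read fluorescently.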
# CYP3A4 = target: T3, CYP3A4 (Homo sapiens, UniProt P08684); test: CYP inhibition test (CYP3A4); format: in vitro ADME; conditions: pooled human liver microsomes; terfenadine hydroxylation
# T3 construct: The commercially available pooled human liver microsomes are used as an enzyme resource; from tissue; host or cells: pooled human liver microsomes
# T3 sequence (P08684 whole entry): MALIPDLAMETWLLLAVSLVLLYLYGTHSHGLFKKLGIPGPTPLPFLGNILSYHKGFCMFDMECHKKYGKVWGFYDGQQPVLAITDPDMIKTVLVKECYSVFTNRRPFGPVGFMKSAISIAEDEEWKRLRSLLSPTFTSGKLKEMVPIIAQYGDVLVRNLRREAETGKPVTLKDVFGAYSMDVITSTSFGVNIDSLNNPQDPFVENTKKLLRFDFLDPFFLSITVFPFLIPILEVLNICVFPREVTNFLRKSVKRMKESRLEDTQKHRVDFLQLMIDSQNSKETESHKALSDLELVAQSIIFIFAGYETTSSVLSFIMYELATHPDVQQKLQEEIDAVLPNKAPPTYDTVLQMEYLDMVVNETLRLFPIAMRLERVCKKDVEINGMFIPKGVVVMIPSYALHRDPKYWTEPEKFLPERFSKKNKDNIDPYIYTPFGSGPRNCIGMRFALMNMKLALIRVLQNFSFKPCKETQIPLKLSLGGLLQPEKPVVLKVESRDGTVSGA
# Procedure, shortened: (§1)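 Pooled human liver microsomes (0.2 mg protein/mL) with compound at 1, 5, 10 and 20 μmol/L and NADPH, at 37 °C. Marker substrates: dextromethorphan 5 μmol/L (2D6), terfenadine 1 μmol/L (3A4), S-mephenytoin 50 μmol/L (2C19), tolbutamide 100 μmol/L (2C9). Metabolites were measured by LC/MS/MS, and IC50 was derived by logistic fit of remaining activity against the DMSO control.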
# Solubility test = format: physicochemical
# Procedure, shortened: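 Dissolved concentration determined by LC/MS or SPE/MS (absolute calibration) in diluted filtrates, after 2 μL of 10 mmol/L DMSO stock was added to 198 μL JP 1st or JP 2nd fluid and equilibrated either 1 h with shaking at room temperature or 16 h standing at 25 °C.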
# Metabolic stability test = format: in vitro ADME; conditions: human liver microsomes, 37° C., 30 minutes, NADPH
# Procedure, shortened: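 Parent compound was measured by LC/MS/MS or SPE/MS after a methanol/acetonitrile quench and reported as % remaining, with the 0 min sample set to 100%. Incubations ran 30 min at 37 °C in pH 7.4 Tris buffer containing pooled human liver microsomes at 0.5 mg protein/mL and 1 mmol/L NADPH.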
# CYP2C19 = target: T4, CYP2C19 (Homo sapiens, UniProt P33261); test: CYP inhibition test (CYP2C19); format: in vitro ADME; conditions: pooled human liver microsomes; mephenytoin 4′-hydroxylation
# T4 construct: The commercially available pooled human liver microsomes are used as an enzyme resource; from tissue; host or cells: pooled human liver microsomes
# T4 sequence (P33261 whole entry): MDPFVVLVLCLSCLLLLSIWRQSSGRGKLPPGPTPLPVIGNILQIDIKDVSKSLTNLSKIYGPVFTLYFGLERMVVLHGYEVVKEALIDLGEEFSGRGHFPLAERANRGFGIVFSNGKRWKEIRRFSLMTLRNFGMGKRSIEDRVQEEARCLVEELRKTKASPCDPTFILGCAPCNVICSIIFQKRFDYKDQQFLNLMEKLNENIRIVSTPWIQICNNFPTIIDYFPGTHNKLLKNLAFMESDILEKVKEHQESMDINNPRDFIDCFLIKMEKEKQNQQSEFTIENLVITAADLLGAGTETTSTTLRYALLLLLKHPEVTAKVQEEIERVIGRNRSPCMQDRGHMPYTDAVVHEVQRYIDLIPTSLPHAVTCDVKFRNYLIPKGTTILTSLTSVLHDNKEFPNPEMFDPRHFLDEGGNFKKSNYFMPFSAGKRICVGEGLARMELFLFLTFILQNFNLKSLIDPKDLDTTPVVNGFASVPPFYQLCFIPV
# Procedure, shortened: as §1
# [2] = JP 1st fluid, 25 °C, pH 1.2, simulated gastric fluid, kinetic from dmso stock, read-out: JP1
# [3] = JP 2nd fluid A, 25 °C, pH 6.8, aqueous buffer, kinetic from dmso stock, read-out: JP2_μM
# [4] = JP 1st fluid, pH 1.2, simulated gastric fluid, kinetic from dmso stock, read-out: JP1
# [5] = JP 2nd fluid A, pH 6.8, aqueous buffer, kinetic from dmso stock, read-out: JP2_μM
# [6] = solubility in JP 2nd fluid B, 1% DMSO, *2: shaken for 1 hour at room temperature, read-out: JP2_μM
structure (smiles),measurement,setting,value
Cc1nc(C(=O)Nc2ccc(F)c([C@@]3(C)N=C(N)O[C@H](C(F)(F)F)[C@@H]3C)c2)co1 [Compound I-32],hERG_3 uM_%,[1],15.2%
same,IC50,CYP1A2,≥ 20 µM
same,IC50,CYP3A4,≥ 20 µM
same,solubility kinetic at 16 h,Solubility test; [2],> 50 µM
same,solubility kinetic at 16 h,Solubility test; [3],> 50 µM
same,remaining %,Metabolic stability test,94.6%
same,IC50,CYP2C19,≥ 20 µM
C[C@H]1[C@@H](C(F)F)OC(N)=N[C@]1(C)c1cc(NC(=O)c2cnc(OCF)cn2)ccc1F [Compound I-33],hERG_3 uM_%,[1],21.9%
same,IC50,CYP1A2,≥ 20 µM
same,IC50,CYP3A4,≥ 20 µM
same,solubility kinetic at 1 h,Solubility test; [4],39.4 µM
same,solubility kinetic at 1 h,Solubility test; [5],> 50 µM
same,remaining %,Metabolic stability test,87.5%
same,IC50,CYP2C19,≥ 20 µM
CC(F)(F)[C@H]1OC(N)=N[C@](C)(c2cc(NC(=O)c3ccc(C#N)cn3)ccc2F)[C@H]1F [Compound I-40],hERG_3 uM_%,[1],48.4%
same,IC50,CYP1A2,≥ 20 µM
same,IC50,CYP3A4,≥ 20 µM
same,solubility kinetic at 1 h,Solubility test; [4],> 50 µM
same,solubility kinetic at 1 h,Solubility test; [5],> 50 µM
same,remaining %,Metabolic stability test,106%
same,IC50,CYP2C19,≥ 20 µM
COc1cnc(C(=O)Nc2ccc(F)c([C@@]3(C)N=C(N)O[C@H](C(C)(F)F)[C@@H]3F)c2)cn1 [Compound I-42],hERG_3 uM_%,[1],15.5%
same,IC50,CYP1A2,≥ 20 µM
same,IC50,CYP3A4,≥ 20 µM
same,solubility kinetic at 1 h,Solubility test; [4],> 50 µM
same,solubility kinetic at 1 h,Solubility test; [5],> 50 µM
same,remaining %,Metabolic stability test,68.2%
same,IC50,CYP2C19,≥ 20 µM
C[C@]1(c2cc(NC(=O)c3cnc(OCF)cn3)ccc2F)N=C(N)OCC12CC(F)(F)C2 [Compound I-44],hERG_3 uM_%,[1],28.9%
same,IC50,CYP1A2,≥ 20 µM
same,IC50,CYP3A4,≥ 20 µM
same,solubility kinetic at 16 h,Solubility test; [2],34 µM
same,solubility kinetic at 16 h,Solubility test; [3],> 50 µM
same,remaining %,Metabolic stability test,86.4%
same,IC50,CYP2C19,≥ 20 µM
C[C@]1(c2cc(NC(=O)c3ccc(F)cn3)ccc2F)N=C(N)OCC12CC(F)(F)C2 [Compound I-45],hERG_3 uM_%,[1],51.6%
same,IC50,CYP1A2,≥ 20 µM
same,IC50,CYP3A4,≥ 20 µM
same,solubility kinetic at 16 h,Solubility test; [2],35.8 µM
same,solubility kinetic at 16 h,Solubility test; [3],> 50 µM
same,remaining %,Metabolic stability test,93.5%
same,IC50,CYP2C19,≥ 20 µM
C[C@H]1SC(N)=N[C@](C)(c2cc(NC(=O)c3cnc(OC(F)F)cn3)ccc2F)[C@H]1F [Compound I-47],hERG_3 uM_%,[1],40.4%
same,IC50,CYP1A2,≥ 20 µM
same,IC50,CYP3A4,≥ 20 µM
same,solubility kinetic at 1 h,Solubility test; [4],> 50 µM
same,solubility kinetic at 1 h,Solubility test; [5],30.5 µM
same,remaining %,Metabolic stability test,96.9%
same,IC50,CYP2C19,≥ 20 µM
C[C@H]1SC(N)=N[C@](C)(c2cc(NC(=O)c3coc(CF)n3)ccc2F)[C@H]1F [Compound I-49],hERG_3 uM_%,[1],27.2%
same,IC50,CYP1A2,≥ 20 µM
same,IC50,CYP3A4,≥ 20 µM
same,solubility kinetic at 1 h,Solubility test; [4],> 50 µM
same,solubility kinetic at 1 h,Solubility test; [5],> 50 µM
same,remaining %,Metabolic stability test,95.4%
same,IC50,CYP2C19,≥ 20 µM
C[C@H]1SC(N)=N[C@](C)(c2cc(NC(=O)c3ccc(OCF)cn3)ccc2F)[C@H]1F [Compound I-51],hERG_3 uM_%,[1],39.4%
same,IC50,CYP1A2,≥ 20 µM
same,IC50,CYP3A4,≥ 10 µM
same,solubility kinetic at 1 h,Solubility test; [4],> 50 µM
same,solubility kinetic at 16 h,Solubility test; [6],>50 µM
same,remaining %,Metabolic stability test,76.5%
same,IC50,CYP2C19,≥ 20 µM
Cc1cc(C#N)cnc1C(=O)Nc1ccc(F)c([C@@]2(C)N=C(N)S[C@H](C)[C@@H]2F)c1 [Compound I-52],hERG_3 uM_%,[1],55.7%
same,IC50,CYP1A2,≥ 20 µM
same,IC50,CYP3A4,≥ 20 µM
same,solubility kinetic at 1 h,Solubility test; [4],> 50 µM
same,solubility kinetic at 1 h,"Solubility test; JP 2nd fluid B, pH 6.8, aqueous buffer, kinetic from dmso stock, read-out: JP2_μM",13.9 µM
same,remaining %,Metabolic stability test,60.3%
same,IC50,CYP2C19,≥ 20 µM
C[C@H]1SC(N)=N[C@](C)(c2cc(NC(=O)c3ncc(OCC(F)(F)F)cn3)ccc2F)[C@H]1F [Compound I-53],hERG_3 uM_%,[1],47.9%
same,IC50,CYP1A2,≥ 20 µM
same,IC50,CYP3A4,≥ 20 µM
same,solubility kinetic at 1 h,Solubility test; [4],> 50 µM
same,solubility kinetic at 16 h,Solubility test; [6],>50 µM
same,remaining %,Metabolic stability test,109%
same,IC50,CYP2C19,≥ 20 µM
